Source: ChEMBL document CHEMBL2321818, “Embellicines A and B: absolute configuration and NF-κB transcriptional inhibitory activity” (J Med Chem, 2013)
pIC50: −log10 of the molar value.

How the values were obtained:
[1] = (§1) Inhibition of TNFalpha-induced NFkappaB activation in human K562 cells incubated for 2 hrs prior to TNFalpha induction measured after 6 hrs by luciferase reporter gene assay; assay type: cell-based
[2] = test system: K562; assay: as §1; assay type: cell-based
[3] = test system: K562; assay: Cytotoxicity against human K562 cells assessed as cell viability after 24 hrs by trypan blue exclusion assay; assay type: functional, cell-based; conditions: K562, 24 h
[4] = test system: K562; assay: Cytotoxicity against human K562 cells assessed as cell viability after 72 hrs by trypan blue exclusion assay; assay type: functional, cell-based; conditions: K562, 72 h
[5] = test system: K562; assay: Cytotoxicity against human K562 cells assessed as cell viability after 8 hrs by trypan blue exclusion assay; assay type: functional, cell-based; conditions: K562, 8 h
[6] = test system: K562; assay: Cytotoxicity against human K562 cells assessed as cell viability after 48 hrs by trypan blue exclusion assay; assay type: functional, cell-based; conditions: K562, 48 h
[7] = test system: K562; assay: Cytotoxicity against human K562 cells assessed as cell viability after 8 to 72 hrs by trypan blue exclusion assay; assay type: functional, cell-based
[8] = test system: K562; assay: Cytotoxicity against human K562 cells assessed as cell viability by trypan blue exclusion assay; assay type: functional, cell-based; conditions: TDE = time-dependent effect
[9] = test system: PBMC; assay: Cytotoxicity against human PBMC cells assessed as cell viability after 24 hrs by trypan blue exclusion assay; assay type: cell-based
[10] = test system: K562; assay: Cytotoxicity against human K562 cells assessed as concentration required to inhibit cell proliferation after 120 hrs by Incucyte phase contrast microscopic analysis; assay type: functional
[11] = Selectivity ratio of IC50 for human PBMC cells to IC50 for human K562 cells; assay type: cell-based; conditions: PBMC cells versus K562 cells, read-out: Ratio IC50
[12] = test system: A549; assay: Cytotoxicity against human A549 cells assessed as concentration required to inhibition cell proliferation after 120 hrs by Incucyte phase contrast microscopic analysis; assay type: functional

SMILES	pIC50 [1]	inhibition [2]	pIC50 [3]	pIC50 [4]	pIC50 [5]	pIC50 [6]	Activity [7]	Activity [8]	pIC50 [9]	INH [10]	selectivity ratio [11]	INH [12]
CC1=C[C@]2(C)C(=C(C)[C@@H]3[C@@H]4C[C@H](C)C[C@H](C)[C@H]4[C@H]4Oc5ccc(cc5)C[C@@]5(O)C=C(C(=O)N5)C(=O)[C@H]2[C@@H]43)[C@@H]1C	5.52	Dose-dependent effect	5.54	5.92	5.46	5.89	Dose-dependent effect	tde				
CC1=C[C@]2(C)C(=C(C)[C@@H]3[C@@H]4C[C@H](C)C[C@H](C)[C@H]4[C@H]4Oc5ccc(cc5)C[C@]5(O)NC(=O)/C(=C(/O)[C@H]2[C@@H]43)[C@@H]5O)[C@@H]1C	6.45	Dose-dependent effect	6.49	6.68	6.04	6.60	Dose-dependent effect	tde	4.89	>=0.5 uM	40	>=0.5 uM
